For data set [1] the following is noted: Antimicrob. Agents Chemother., 1999, 37, 281-286; cited from earlier work.
The nature of data set [2]: Physical properties: solubility in solvents and water. Format: physicochemical. The note with it: chloroform, ethyl acetate, methanol, water. As for the experimental part:
• Column: Eurospher RP-18, (3μ, 4.6×125 mm) • Solvent system: Gradient (0% acetonitrile to 100% in 15 minutes against water, followed by 100% acetonitrile for 5 minutes) • Flow rate: 1 mL/minute • Detection (UV): 245 nm • Retention time: compound of formula I (12 to 13 minutes) Physical & Spectral properties of the compound of formula I: • Appearance: White powder • Melting point: 240° C.

Data set [3] can be described thus: Pulmonary bioavailability, nose-only exposure lung deposition (Example 21). The note with it: 3 mg/kg. It is filed as in vivo, Guinea pigs. As for the experimental part: (§1) The assay was done as reported in The AAPS Journal, 2005, 7 (1), E20-E41.
A nose-only exposure in vivo lung deposition study was carried out as per the reference mentioned. Guinea pigs were divided in two groups. Group 1 received unformulated compound of formula I (3 mg/kg) and group 2 received formulation of Example 9 Method A (3 mg/kg). The unformulated compound of formula I and formulation of Example 9 Method A were aerosolized and the nose-only exposure was carried out using jet nebulizer wherein the nebulization period was one hour. Following aerosol administration, the animals were sacrificed at 1 hour, 2 hours, 6 hours, 12 hours and 24 hours post aerosol exposure and the lungs were collected and analyzed to quantitate the amount of compound of formula I (ng/g) deposited in the lung by LC-MS.

In a further data set the test system is rat alveolar macrophages. In words: In vitro macrophage uptake assay. Format: cell-based. As for the experimental part:
The assay was carried out based on the reference Respiratory Research, 2009, 10, 44.
Bronchoalveolar lavage washings from the rats were taken after appropriate ethical permission. Sterile warmed saline was introduced into the lung and then removed by suction. Bronchoalveolar lavage fluid was transported on icepacks (usually 100 to 200 mL of bronchoalveolar lavage fluid per donor is desired). The fluid was subjected to centrifugation at 250 g for 10 minutes and the cells were collected. Pooled the cell pellets by resuspending the cells in a total of 10 mL of HBSS. 100 μL aliquot was removed and stained with Wright-Giemsa stain to do a differential cell count. The cell count was adjusted and plated the cells in macrophage culture medium (HAM F12 medium, Amimed, Switzerland). 0.5 mL of the cell suspension was added to each of the 6 well tissue culture plates with 0.5 mL of the macrophage culture medium. The cells were incubated for 24 hours at 37° C. and 5% CO2. Cell adherence and cell growth was evaluated and treated with the formulation of Example 9 Method A tagged with sulforhodamine dye. Post treatment the cells were evaluated for fluorescence. This fluorescence results for selective uptake of the formulation by the alveolar macrophages.

Data set [4] relates to MRC5, L929 and A549 cell lines. In words: In vitro cytocompatibility assay, all cell lines evaluated. Format: cell-based. To be noted: all the different cell lines evaluated. As for the experimental part:
The assay was carried out based on the reference Journal of Biomedical Materials Research, 2009, […], 281-292. This assay was performed to evaluate the cytocompatibility of the formulation of Example 9 Method A with the relevant cell lines and standard cells which are specified by the regulatory agencies. Cell density: 10,000/well for MRC 5 and […], and 3000/well for A549 Time points: 24 hours and 48 hours. The toxicological evaluation was done using The CellTiter 96 Aqueous One Solution Assay by Promega (Cat. no: G3582). The assay is a standard colorimetric method for determining the number of viable cells in proliferation or cytotoxicity assays. The MTS used in the assay is bioreduced by cells into a colored formazan product that is soluble in tissue culture medium. The quantity of formazan product as measured by the amount of 490 nm absorbance is directly proportional to the number of living cells in culture. […] The ELISA 96-well plate was then subjected to absorbance recordings at 490 nm (450-540 nm) with a 96-well plate reader. The average 490 nm absorbance from the “no-cell” control was subtracted from all other absorbance values and the corrected absorbance was utilized for further calculations. (Background absorbance from “no-cell” control is typically 0.2 to 0.3 absorbance units after 4 hours of incubation).

Data set [5] in a line: Estimation of solubility in simulated lung fluid (SLF, pH 7.4) by HPLC. The note with it: fassgf or other biorelevant, thermodynamic from solid. It is filed as physicochemical. Here is the method: SLF was prepared by method based on Respiratory Physiology & Neurobiology, 2008, 162, 73-79. 9 g of sodium chloride, 0.220 g of calcium chloride and 6.5 g of lactose were dissolved in 1000 mL of water. The pH of the resultant solution was adjusted to 7.4. Solubility of compound of formula I in SLF was measured at two temperatures, 45° C. and 60° C. For this, 1 mg of compound of formula I was added to 3 mL of SLF (in duplicates) and after vortexing for few seconds was incubated in water bath set at the required temperatures. Solubility was measured at one hour intervals for three hours. The solution was filtered through 0.22 μm filter and the filtrate was injected on HPLC. Solubility was calculated with respect to appropriate calibration curve.

Data set [6] is described as follows: Pilot in vivo lung deposition study (Example 20). To be noted: guinea pig, lungs, 10 mg/kg aerosolized, passive breathing, read-out: compound of formula I deposited. Details: species or system Guinea pigs. Here is the method:
as §1
A pilot in vivo lung deposition study was carried out as per the reference mentioned. Guinea pigs were divided in three groups. Group 1 received formulation of Example 9 Method A, group 2 received unformulated compound of formula I and group 3 was untreated (naïve group). 10 mg/kg of the formulation was aerosolized and the animals were allowed to breathe passively. Following administration of the formulation of Example 9 Method A the animals were sacrificed at 30 minutes time point. The lungs were collected and analyzed by HPLC.

Data set [7] can be described thus: Dose scheduling, nose-only exposure lung deposition (Example 23). To be noted: 3 mg/kg, regimen not stated. It is filed as in vivo, Guinea pigs. As for the experimental part:
To evaluate dose scheduling of the formulation of Example 9 Method A The assay was done as reported in The AAPS Journal, 2005, 7 (1), E20-E41.
(§2) A nose-only exposure in vivo lung deposition study was carried out as per the reference mentioned. Guinea pigs were divided in three groups. Group 1 received unformulated compound of formula I (3 mg/kg); group 2 received formulation of Example 9 Method A (3 mg/kg) once a day for one day and group 3 received formulation of Example 9 Method A (3 mg/kg) twice a day for one day. The unformulated compound of formula I and formulation of Example 9 Method A were aerosolized and the nose-only exposure was carried out using jet nebulizer. The animals were sacrificed and the lungs were collected and analyzed to quantitate the amount of compound of formula I (ng/g) deposited in the lung by LC-MS. LC-MS conditions are as provided in Tables 15, 16 and 17 of Example 21.

A short description of data set [8]: Cumulative accumulation after once a day dosing for 5 days (Example 22). Details: species or system Guinea pigs. The note with it: guinea pig, in vivo; lung, 3 mg/kg, 1 hour nebulization everyday for five consecutive days, sacrificed on 6th day; read-out: Compound of formula I deposited. As for the experimental part:
Evaluation of cumulative accumulation of formulation of Example 9 Method A after once a day dosing for 5 days for nebulization exposure period of 1 hour/day The assay was done as reported in The AAPS Journal, 2005, 7 (1), E20-E41.
as §2, with “in two” for “in three”, “(3 mg/kg) and” for “(3 mg/kg);”, “(3 mg/kg).” for “(3 mg/kg) once a day for one day and group 3 received formulation of Example 9 Method A (3 mg/kg) twice a day for one day.”, “jet nebulizer wherein the nebulization period was one hour everyday for five consecutive days and the” for “jet nebulizer. The”, “sacrificed on 6th day. The” for “sacrificed and the”

For `CN[C@H](CC(C)C)C(=O)N[C@H]1C(=O)N[C@@H](CC(N)=O)C(=O)N[C@H]2C(=O)N[C@H]3C(=O)N[C@H](C(=O)N[C@H](C(=O)O)c4cc(O)cc(O)c4-c4cc3ccc4O)[C@H](O)c3ccc(c(Cl)c3)Oc3cc2cc(c3O[C@@H]2O[C@H](CO)[C@@H](O)[C@H](O)[C@H]2O[C@H]2C[C@](C)(N)[C@H](O)[C@H](C)O2)Oc2ccc(cc2Cl)[C@H]1O` [Vancomycin], in [1], the “Lung concentrations as % of the plasma concentrations” value was 20%.
As to `C=C(NC(=O)C(=C)NC(=O)c1csc(C2=NC3c4csc(n4)C4NC(=O)c5csc(n5)C(C(C)(O)C(C)O)NC(=O)C5CSC(=N5)/C(=C\C)NC(=O)C(C(C)O)NC(=O)c5csc(n5)C3(CC2)NC(=O)C(C)NC(=O)C(=C)NC(=O)C(C)NC(=O)C(C(C)C)NC2C=Cc3c(C(C)O)cc(nc3C2O)C(=O)OC4C)n1)C(N)=O` (stereo not shown) [Compound of formula I], the “Solubility (in words)” value in data set [2] was “Soluble in chloroform, ethyl acetate, methanol and insoluble in water”. In [3] (nose-only nebulization), the “Ability to reach the lungs on nebulization (in words)” value is listed as “unable to reach the lungs”. Moreover, the concentration at 1 h in data set [3] (guinea pig, in vivo, lung, nose-only, 1 hour nebulization, 1 hour post exposure, read-out: Compound of formula I deposited) is 1 ng/g. The concentration at 2 h in data set [3] (guinea pig, in vivo, lung, nose-only, 1 hour nebulization, 2 hours post exposure, read-out: Compound of formula I deposited) amounted to 1 ng/g. Also, the concentration at 6 h in data set [3] (guinea pig, in vivo, lung, nose-only, 1 hour nebulization, 6 hours post exposure, read-out: Compound of formula I deposited) was 1 ng/g. Further, in data set [3] (guinea pig, in vivo, lung, nose-only, 1 hour nebulization, 12 hours post exposure, read-out: Compound of formula I deposited), the concentration at 12 h is 1 ng/g. Also, in [3] (guinea pig, in vivo, lung, nose-only, 1 hour nebulization, 24 hours post exposure, read-out: Compound of formula I deposited), the concentration at 24 h came out at 1 ng/g. The “Uptake by alveolar macrophages (in words)” value in the data set with rat alveolar macrophages is on record as “does not show active uptake”. For the same molecule, the “Compound concentration in alveolar macrophages” value amounted to 2010 ng/mL in the data set with rat alveolar macrophages (30 minutes), 2010 ng/mL with rat alveolar macrophages (60 minutes) and 1990 ng/mL with rat alveolar macrophages (120 minutes). The “Cytotoxicity (in words)” value in data set [4] is “exhibited cytotoxicity”. For the same molecule, the solubility (in general, how much of the substance goes into solution per volume) at 1 h in data set [5] (SLF pH 7.4, 45° C.) was 1.3 µg/mL; in data set [5] (SLF pH 7.4, 60° C.), 0.6 µg/mL. For the same molecule, the solubility at 2 h in data set [5] (SLF pH 7.4, 45° C.) is 0.9 µg/mL; in [5] (SLF pH 7.4, 60° C.), 0.7 µg/mL. Further, the solubility at 3 h was 1.2 µg/mL in [5] (SLF pH 7.4, 45° C.) and 1.3 µg/mL in data set [5] (SLF pH 7.4, 60° C.). The concentration at 30 min in data set [6] worked out at 0 ng/g. Moreover, the “Compound of formula I deposited” value in [7] stood at 0 ng/g. For the same molecule, the concentration at 6 day in data set [8] was determined as 1 ng/g.

(Values after patent publication US8697653B2, “Microparticle formulation for pulmonary drug delivery of anti infective molecule for treatment of infectious diseases” (priority 2010, dated 2014).)
